Measurements: patent publication US8431563B2 (priority 2010, dated 2013)
Counter-ions that a name gives are not always drawn.

How the values were obtained:
[1] = target: T1, GKRP (Glucokinase Regulatory Protein) with human His-hepatic GK (Homo sapiens, UniProt Q14397); assay: GKRP NADPH Coupled Assay; assay type: biochemical; conditions: indirect measure of glucose-6-phosphate, fluorescence, 1 μM GKRP (10×), 20 nM GK (5×)
T1 sequence (Q14397 1-625): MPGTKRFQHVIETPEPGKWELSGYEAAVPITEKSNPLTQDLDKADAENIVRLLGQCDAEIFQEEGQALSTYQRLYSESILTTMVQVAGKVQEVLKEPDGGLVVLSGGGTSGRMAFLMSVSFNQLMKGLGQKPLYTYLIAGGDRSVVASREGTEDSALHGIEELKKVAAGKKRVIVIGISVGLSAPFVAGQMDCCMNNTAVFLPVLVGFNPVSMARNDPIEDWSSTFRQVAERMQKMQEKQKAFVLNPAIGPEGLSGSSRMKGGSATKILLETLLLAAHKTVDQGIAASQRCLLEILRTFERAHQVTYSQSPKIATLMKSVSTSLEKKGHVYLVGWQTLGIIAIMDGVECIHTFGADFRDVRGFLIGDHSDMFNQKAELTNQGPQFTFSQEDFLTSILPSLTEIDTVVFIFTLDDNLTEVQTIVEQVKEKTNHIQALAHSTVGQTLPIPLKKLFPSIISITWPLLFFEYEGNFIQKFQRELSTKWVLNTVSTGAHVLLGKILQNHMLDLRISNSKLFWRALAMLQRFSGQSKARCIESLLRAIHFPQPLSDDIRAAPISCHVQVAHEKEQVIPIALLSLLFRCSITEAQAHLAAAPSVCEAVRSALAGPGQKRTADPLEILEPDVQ
Procedure: (§1) This assay is used to directly measure the formation of ^13C-glucose-6-phosphate from ^13C-glucose by liquid chromatography-mass spectrometry (LC MS/MS). Begin by preparing the following solutions: Compound Buffer (CB): 50 mM Tris, pH 7.5/4 mM MgCl2/6% DMSO/fresh 10 mM DTT from 1M frozen stock. Enzyme Buffer (EB): 50 mM Tris, pH 7.5/4 mM MgCl2/6% DMSO/fresh 0.1% BSA/fresh 0.01% Brij-35 (10% BSA and 1% Brij-35 stock). GK (Glucokinase) Working Stock (5×): Dilute human His-hepatic GK to 30 nM in EB buffer. […] After 30 minutes add 10 μl of GK Working Stock (5×). Re-seal the plate and incubate for another 30 minutes at room temperature while mixing. After the second 30 minutes, stop the reaction by the addition of 50 μl of 100% acetonitrile, seal, and mix for 5-10 minutes. Run 10 μl of this sample through the LC MS/MS (API 3200, Applied Biosystems Inc., Carlsbad, Calif.).
This assay is used as an indirect measure of glucose-6-phosphate (G6P) formed from glucose due to the enzymatic activity of glucokinase. Assay format is the same as for GKRP LC MS/MS Biochemical Assay with the following exceptions. GK Working Stock (5×): Dilute human His-hepatic GK to 20 nM in EB buffer. Stop & Detection Reagent (2×): Dilute β-nicotinamide adenine dinucleotide phosphate sodium salt (β-NADP) (Aldrich-Sigma, St. Louis, Mo.) to 2 mM from 100 mM stock (stock in 10 mM Tris, pH 9.2) and dilute glucose-6-phosphate dehydrogenase (Aldrich-Sigma, St. Louis, Mo.) to 0.04 Unit/μl from 10 Unit/μl (stock in 10 mM Tris pH 7.5/0.05% Brij-35) in 0.2 M Tris, pH 9.2/8% DMSO. After the initial 30 minute incubation add 10 μl of 20 nM GK diluted in EB (5×). Re-seal the plate and incubate for another 1 hour at room temperature while mixing. After 1 hour remove the seal and add 50 μl of Stop & Detection Reagent and incubate for 5 minutes at room temperature while mixing.

[2] = target: T1, GKRP (Glucokinase Regulatory Protein) with human His-hepatic GK; assay: GKRP LC MS/MS Biochemical Assay; conditions: 13C-glucose-6-phosphate formation, 1 μM GKRP (10×), 30 nM GK (5×)
Procedure: GKRP LC MS/MS Biochemical Assay
as §1

Compound | EC50 ([1]; GK-GKRP EC50 (NADPH-coupled)) | EC50 ([2]; GK-GKRP EC50 (LC MS/MS)) | EC50 ([1]; read-out: GK-GKRP EC50 (NADPH-coupled)) | EC50 ([2]; read-out: GK-GKRP EC50 (LC MS/MS))
CC1CN(CC2CN(S(=O)(=O)c3cccs3)CCN2c2ccc(C(C)(O)C(F)(F)F)cc2)CCO1 (mixture of isomers) [Example 49, 1,1,1-trifluoro-2-(4-(2-((2-methyl-4-morpholinyl)methyl)-4-(2-thiophenylsulfonyl)-1-piperazinyl)phenyl)-2-propanol] | 647 nM | 707 nM |  | 
Cn1ccc(S(=O)(=O)N2CCN(c3ccc(C(O)(C(F)(F)F)C(F)(F)F)cc3)CC2)n1 [Example 5, 1,1,1,3,3,3-hexafluoro-2-(4-(4-((1-methyl-1H-pyrazol-3-yl)sulfonyl)-1-piperazinyl)phenyl)-2-propanol] | 1580 nM | 5380 nM |  | 
O=S(=O)(c1cccs1)N1CCN(c2ccc(C(O)(C(F)(F)F)C(F)(F)F)cc2-c2ccsc2)CC1 [Example 73, 1,1,1,3,3,3-hexafluoro-2-(3-(3-thiophenyl)-4-(4-(2-thiophenylsulfonyl)-1-piperazinyl)phenyl)-2-propanol] | 3500 nM | 1900 nM |  | 
C[C@H]1COCCN1CC1CN(S(=O)(=O)c2cccs2)CCN1c1ccc(C(C)(O)C(F)(F)F)cc1 (single isomer, unassigned) [Example 45 Peak #1] | 52 nM | 62 nM |  | 
C[C@H]1COCCN1C[C@H]1CN(S(=O)(=O)c2cccs2)CCN1c1ccc([C@@](C)(O)C(F)(F)F)cc1 [Example 45 Peak #2, 1,1,1-trifluoro-2-(4-((2S)-2-(((3S)-3-methyl-4-morpholinyl)methyl)-4-(2-thiophenylsulfonyl)-1-piperazinyl)phenyl)-2-propanol] | 68 nM | 71 nM |  | 
CC1(C)CN(CC2CN(S(=O)(=O)c3cccs3)CCN2c2ccc(C(C)(O)C(F)(F)F)cc2)CCO1 (mixture of isomers) [Example 47, 2-(4-(2-((2,2-dimethyl-4-morpholinyl)methyl)-4-(2-thiophenylsulfonyl)-1-piperazinyl)phenyl)-1,1,1-trifluoro-2-propanol] | 182 nM | 295 nM |  | 
O=S(=O)(c1cccc(Cl)c1)N1CCN(c2ccc(C(O)(C(F)(F)F)C(F)(F)F)cc2)CC1 [Example 9, 2-(4-(4-(3-chlorophenylsulfonyl)piperazin-1-yl)phenyl)-1,1,1,3,3,3-hexafluoro-2-propanol] | 4410 nM | 3710 nM |  | 
CC(O)(c1ccc(N2CCN(S(=O)(=O)c3cccs3)CC2CC2CCCCC2)cc1)C(F)(F)F (mixture of isomers) [Example 58, 2-(4-(2-(cyclohexylmethyl)-4-(2-thiophenylsulfonyl)-1-piperazinyl)phenyl)-1,1,1-trifluoro-2-propanol] |  |  | 1000 nM | 1320 nM
O=S(=O)(c1ccccc1Cl)N1CCN(c2ccc(C(O)(C(F)(F)F)C(F)(F)F)cc2)CC1 [Example 10, 2-(4-(4-((2-chlorophenyl)sulfonyl)-1-piperazinyl)phenyl)-1,1,1,3,3,3-hexafluoro-2-propanol] | 3950 nM | 2600 nM |  | 
CN(Cc1ccccc1)CC1CN(S(=O)(=O)c2cccs2)CCN1c1ccc(C(C)(O)C(F)(F)F)cc1 (mixture of isomers) [Example 62, 2-(4-(2-((benzyl(methyl)amino)methyl)-4-(2-thiophenylsulfonyl)-1-piperazinyl)phenyl)-1,1,1-trifluoro-2-propanol] | 1010 nM | 1220 nM |  | 
CC(C)(O)C#Cc1cc(-c2ccc(C(C)(O)C(F)(F)F)cc2)ccc1S(=O)(=O)c1ccccc1 (racemic) [Example 20, 2-methyl-4-(4-(phenylsulfonyl)-4′-(2,2,2-trifluoro-1-hydroxy-1-methylethyl)-3-biphenylyl)-3-butyn-2-ol] | 1800 nM | 2250 nM |  | 
C[C@H]1CN(S(=O)(=O)c2nccs2)CCN1c1ccc(C(O)(C(F)(F)F)C(F)(F)F)cc1 [Example 31, 1,1,1,3,3,3-hexafluoro-2-(4-((2S)-2-methyl-4-(1,3-thiazol-2-ylsulfonyl)-1-piperazinyl)phenyl)-2-propanol trifluoroacetate] | 561 nM | 702 nM |  | 
